The values that follow come from patent US20250221979A1, “NOVEL HETEROCYCLIC COMPOUND” (SHOUYAO HOLDINGS (BEIJING) CO., LTD., priority 2022, published 2025).

The AUC is concentration integrated over time. High values mean high exposure, low ones low exposure. The term Cmax denotes the maximum level reached in the sampled fluid or tissue. The Tmax is the time from dosing to the highest level. As usually defined, the half-life is the time needed for the level to fall by half in the phase considered. Read a high half-life as slow decline.

One series addresses human MAT2A enzyme (Homo sapiens (Human), UniProt P31153). In words: In vitro enzymatic inhibition activity assay on MAT2A (PiColorLock phosphate detection). It counts as biochemical. Conditions: purified human MAT2A 10 nM, ATP 50 μM, L-methionine 100 μM, 6 h at 23° C.; read-out: MAT2A inhibitory activity IC50. In short, it runs like this: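 IC50 came from an 8-point, 10-fold compound series that reduced phosphate release, measured by absorbance at 630 nm. Reactions ran 6 h at 23 °C with 10 nM human MAT2A, 50 μM ATP and 100 μM L-methionine in pH 7.5 Tris buffer containing Mg2+.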

Another series has as its system HCT116 MTAP−/− cells. The series can be described thus: Inhibition of proliferation of HCT116 MTAP-/- cells (Cell-Titer Glo, 7 days). The series is classed as cell-based. Conditions: Homo sapiens, HCT-116, 168 h (7 days) incubation, read-out: HCT116 MTAP−/− antiproliferative activity IC50. As for the experimental part: The MTAP deficient human colorectal cancer cell line HCT116 MTAP−/− was constructed using CRJSPR Cas9 technology and cultured in DMEM medium supplemented with 10% fetal bovine serum (FBS, purchased from Gibco) and 1% penicillin/streptomycin (P/S, purchased from Thermo Fisher Scientific) at 37° C. with 5% CO2. HCT116 MTAP−/− cells were plated in 96 well plates (#3917, purchased from CORNING) at a concentration of 200 cells/195 μL/well. After 24 h, the compounds were diluted in a 3-fold gradient starting at 10 mM with 100% DMSO (for a total of 10 concentrations), then 4 μL of each concentration was added to 96 μL of serum-free DMEM medium for dilution. 5 μL of diluted compound at each concentration was added to the plated cell suspension and the compound was incubated with the cells for 168 h (7 days) in a cell culture incubator. The medium was then removed and 25 μL of Cell-Titer Glo® (G7570, purchased from Promega) reagent was added. Chemiluminescence values were read on a BMG and data were processed using GraphPad Prism software to calculate IC50 values for inhibition of cell proliferation by the compounds.

The nature of series [1]: In vivo pharmacokinetic study in CD-1 mice. Conditions: male, mouse, single oral gavage dose of 10 mg/kg, plasma. As for the experimental part: In vivo pharmacokinetic study in CD-1 mice
Twenty-four healthy adult male mice from Beijing Vital River Laboratory Animal Technology Co., Ltd. were used in the study.
CD-1 mice were administered with a single oral gavage dose of 10 mg/kg in a volume of 10 mL/kg at a concentration of 1 mg/mL.
The test article in this project is generally suspended in 0.5% hydroxypropylmethyl cellulose, 0.1% Tween 80 (W/V/V) aqueous solution at the concentration of 1 mg/mL.
Animals dosed by gavage were fasted overnight before the experiment from 16 h before dosing to 4 h after dosing. Blood was collected at 0.25, 0.5, 1, 2, 4, 6, 8, and 24 h after administration successively. The animals were lightly anesthetized with isoflurane. About 0.2 mL of whole blood was collected from the orbital venous plexus using a glass blood collection tube and placed in a sodium heparin anticoagulant tube. The sample was centrifuged at 5200 rpm for 5 min at 4° C. The plasma was transferred to a centrifuge tube and stored at −80° C. until analysis.
Analysis of plasma samples Test compounds and internal standards (warfarin or propranolol) were extracted from mouse plasma using an acetonitrile protein precipitation method and the extracts were analyzed by LC/MS/MS. The measured plasma concentration-time data of individual animals were analyzed using the non-compartmental model of WinNonlin (version 5.2.1, Pharsight) software to obtain the corresponding pharmacokinetic parameters: maximum (peak) plasma drug concentration Cmax; Time to peak Tmax; Half-life T1/2 and area under the plasma concentration-time curve extrapolated to infinite time AUC0-inf.

Chain of human MAT2A enzyme (P31153 whole entry): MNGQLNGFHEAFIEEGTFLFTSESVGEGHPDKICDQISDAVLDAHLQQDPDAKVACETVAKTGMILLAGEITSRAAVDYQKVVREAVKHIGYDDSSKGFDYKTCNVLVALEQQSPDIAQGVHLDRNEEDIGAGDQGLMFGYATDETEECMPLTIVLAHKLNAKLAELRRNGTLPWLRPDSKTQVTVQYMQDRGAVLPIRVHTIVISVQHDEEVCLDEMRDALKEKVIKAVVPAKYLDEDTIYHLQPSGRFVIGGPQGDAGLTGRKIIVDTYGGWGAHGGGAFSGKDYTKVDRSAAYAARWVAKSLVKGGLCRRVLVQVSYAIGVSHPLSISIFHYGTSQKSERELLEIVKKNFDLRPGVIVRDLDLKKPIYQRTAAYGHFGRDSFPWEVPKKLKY

`COC(=O)c1c(N)c2ccc(Br)nc2n(-c2cccc3cnccc23)c1=O` [Example 221, methyl 4-amino-7-bromo-1-(isoquinolin-5-yl)-2-oxo-1,2-dihydro-1,8-naphthyridine-3-carboxylate]: the IC50 on human MAT2A enzyme was determined as 2.71 nM; in the series with HCT116 MTAP−/− cells, 41.4 nM.

On to `COC(=O)c1c(N)c2ccc(Br)cc2n(-c2ccc(Cl)c3cnccc23)c1=O` [Example 176, methyl amino-1-(8-chloroisoquinolin-5-yl)-7-bromo-2-oxo-1,2-dihydroquinoline-3-carboxylate], for which the IC50 at human MAT2A enzyme is 2.74 nM; in the series with HCT116 MTAP−/− cells, 39.2 nM.

For the molecule `COC(=O)c1c(N)c2ccc(Cl)cc2n(-c2ccccc2)c1=O` [Example 15, methyl 4-amino-7-chloro-2-oxo-1-phenyl-1,2-dihydroquinoline-3—carboxylate], in series [1], the AUC was 44200 ng·h/mL, the highest concentration (Cmax) turned out to be 3080 ng/mL, the Tmax amounted to 6 h and the half-life was 8.88 h.

In the case of `COC(=O)c1c(N)c2ccc(Br)cc2n(-c2ccc(C)nc2)c1=O` [Example 214, methyl 4-amino-7-bromo-1-(6-methylpyridin-3-yl)-2-oxo-1,2-dihydroquinoline-3-carboxylate], the IC50 on human MAT2A enzyme came to 2.89 nM. Further, in series [1], the area under the curve (AUC) was found to be 232000 ng·h/mL, the maximum concentration (Cmax) was 28600 ng/mL, the time to peak (Tmax) was determined as 1 h and the half-life is 2.53 h.

Consider `COC(=O)c1c(N)c2ccc(Br)nc2n(-c2cccc3c(Cl)nccc23)c1=O` [Example 240, methyl 4-amino-1-(1-chloroisoquinolin-5-yl)-7-bromo-2-oxo-1,2-dihydro-1,8-naphthyridine-3-carboxylate], for which the IC50 on human MAT2A enzyme turned out to be 1.72 nM; in the series on HCT116 MTAP−/− cells, 61.2 nM.

Turning to `COC(=O)c1c(N)c2ccc(Br)cc2n(-c2cccc3cnccc23)c1=O` [Example 154, methyl 4-amino-7-bromo-1-(isoquinolin-5-yl)-2-oxo-1,2-dihydroquinoline-3-carboxylate], the IC50 amounted to 3 nM on human MAT2A enzyme and 35.1 nM with HCT116 MTAP−/− cells.

Consider `COC(=O)c1c(N)c2ccc(C(F)(F)F)nc2n(-c2ccc(N)cc2Cl)c1=O` [Example 325, methyl 4-amino-1-(4-amino-2-chlorophenyl)-2-oxo-7-trifluoromethyl-1,2-dihydro-1,8-naphthyridine-3-carboxylate], for which the IC50 at human MAT2A enzyme stood at 2.29 nM. In series [1], the exposure (AUC) was determined as 452000 ng·h/mL, the Cmax was found to be 52800 ng/mL, the time to peak (Tmax) turned out to be 1 h and the half-life is 6.81 h.

For the molecule `COC(=O)c1c(N)c2ccc(C(F)(F)F)nc2n(-c2ccc(Cl)nc2)c1=O` [Example 203, methyl 4-amino-1-(6-chloropyridin-3-yl)-2-oxo-7-(trifluoromethyl)-1,2-dihydro-1,8-naphthyridine-3-carboxylate], the IC50 is 1.26 nM on human MAT2A enzyme and 25 nM in the series on HCT116 MTAP−/− cells.

Consider `COC(=O)c1c(N)c2ccc(C(F)(F)F)nc2n(-c2ccc(C)nc2)c1=O` [Example 207, methyl 4-amino-1-(6-methylpyridin-3-yl)-2-oxo-7-(trifluoromethyl)-1,2-dihydro-1,8-naphthyridine-3-carboxylate], for which the figures for the IC50 at human MAT2A enzyme and with HCT116 MTAP−/− cells were 2.17 nM and 53.2 nM, respectively.

Consider `COC(=O)c1c(N)c2ccc(OC(F)(F)F)cc2n(-c2ccc(N)cc2)c1=O` [Example 379, methyl 4-amino-1-(4-aminophenyl)-2-oxo-7-(trifluoromethoxy)-1,2-dihydroquinoline-3-carboxylate], for which the IC50 at human MAT2A enzyme was 1.41 nM. Further, in series [1], the exposure (AUC) is 468000 ng·h/mL, the peak level (Cmax) was 18600 ng/mL, the time of peak concentration (Tmax) worked out at 4 h and the half-life is 16.5 h.

For the molecule `COC(=O)c1c(N)c2ccc(C(F)(F)F)cc2n(-c2ccccc2C)c1=O` [Example 23, methyl 4-amino-7-trifluoromethyl-1-(2-methylphenyl)-2-oxo-1,2-dihydro quinoline-3-carboxylate], on human MAT2A enzyme, the IC50 was 0.91 nM. In series [1], the AUC worked out at 37000 ng·h/mL, the peak level (Cmax) was 2640 ng/mL, the Tmax was determined as 6 h and the half-life was 6.51 h.

`COC(=O)c1c(N)c2ccc(C(F)(F)F)cc2n(-c2cccc3cnccc23)c1=O` [Example 88, methyl 4-amino-1-(isoquinolin-5-yl)-2-oxo-7-(trifluoromethyl)-1,2-dihydroquinoline-3-carboxylate]: on human MAT2A enzyme, the IC50 is 7.3 nM. In series [1], the area under the curve (AUC) worked out at 24800 ng·h/mL, the Cmax turned out to be 6690 ng/mL, the Tmax was 0.42 h and the half-life is 3.88 h.

With `COC(=O)c1c(N)c2ccc(Br)cc2n(-c2ccc(N)cc2C)c1=O` [Example 238, methyl 4-amino-1-(4-amino-2-methylphenyl)-7-bromo-2-oxo-1,2-dihydroquinoline-3-carboxylate], on human MAT2A enzyme, the IC50 was 1.24 nM. Further, in series [1], the exposure (AUC) amounted to 591000 ng·h/mL, the highest concentration (Cmax) worked out at 37500 ng/mL, the Tmax came to 4 h and the half-life is 9.25 h.

On to `COC(=O)c1c(N)c2ccc(Br)cc2n(-c2ccc(N)nc2)c1=O` [Example 180, methyl 4-amino-1-(6-aminopyridin-3-yl)-7-bromo-2-oxo-1,2-dihydroquinoline-3-carboxylate], for which the IC50 on human MAT2A enzyme was found to be 0.76 nM. Besides, in series [1], the AUC is 32800 ng·h/mL, the highest concentration (Cmax) is 5060 ng/mL, the Tmax worked out at 2.08 h and the half-life was 4.09 h.

In the case of `[2H]C([2H])([2H])OC(=O)c1c(N)c2ccc(Br)cc2n(-c2ccc(N)cc2)c1=O` [Example 189, methyl-d3 4-amino-1-(4-aminophenyl)-7-bromo-2-oxo-1,2-dihydroquinolin-3-carboxylate], the IC50 on human MAT2A enzyme turned out to be 0.32 nM.

As to `COC(=O)c1c(N)c2ccc(C(F)(F)F)cc2n(-c2ccc(C)nc2)c1=O` [Example 215, methyl 4-amino-1-(6-methylpyridin-3-yl)-2-oxo-7-(trifluoromethyl)-1,2-dihydroquinoline-3-carboxylate], the IC50 at human MAT2A enzyme came to 2.5 nM.

As to `COC(=O)c1c(N)c2ccc(I)cc2n(-c2cccc3c2CCO3)c1=O` [Example 59, methyl 4-amino-1-(2,3-dihydro-1-benzofuran-4-yl)-7-iodo-2-oxo-1,2-dihydro quinoline-3-carboxylate], the IC50 on human MAT2A enzyme was found to be 5.12 nM.

`COC(=O)c1c(N)c2ccc(Br)cc2n(-c2ccccc2)c1=O` [Example 22, methyl 4-amino-7-bromo-2-oxo-1-phenyl-1,2-dihydroquinoline-3—carboxylate]: the IC50 at human MAT2A enzyme stood at 0.54 nM. Also, in series [1], the AUC is 25300 ng·h/mL, the highest level (Cmax) was 1920 ng/mL, the Tmax amounted to 6 h and the half-life was 6.82 h.

As for `COC(=O)c1c(N)c2ccc(C(F)(F)F)cc2n(-c2ccc3c(c2)OCC3)c1=O` [Example 111, methyl 4-amino-1-(2,3-dihydro-1-benzofuran-6-yl)-2-oxo-7-(trifluoromethyl)-1,2-dihydroquinoline-3-carboxylate], the IC50 on human MAT2A enzyme came to 4.06 nM.

Take `COC(=O)c1c(N)c2ccc(Br)cc2n(-c2ccc(Cl)cc2C)c1=O` [Example 152, methyl 4-amino-7-bromo-1-(4-chloro-2-methylphenyl)-2-oxo-1,2-dihydroquinoline-3-carboxylate]: the IC50 on human MAT2A enzyme is 1.64 nM.

As for `COC(=O)c1c(N)c2ccc(C3CC3)cc2n(-c2ccc(C(C)O)cc2)c1=O` (centres unmarked) [Example 328, methyl 4-amino-1-(4-(1-hydroxyethyl)phenyl)-2-oxo-7-cyclopropyl-1,2-dihydroquinoline-3-carboxylate], the IC50 on human MAT2A enzyme came to 2.59 nM.
